The supplement of paper PMC9663587

Legend:
ABT-737 = compound: CN(C)CC[C@H](CSc1ccccc1)Nc1ccc(S(=O)(=O)NC(=O)c2ccc(N3CCN(Cc4ccccc4-c4ccc(Cl)cc4)CC3)cc2)cc1[N+](=O)[O-] [ABT-737]
Saracatinib/AZD0530 = compound: CN1CCN(CCOc2cc(OC3CCOCC3)c3c(Nc4c(Cl)ccc5c4OCO5)ncnc3c2)CC1 [Saracatinib/AZD0530]
Flavopiridol [1] = compound: T1, CN1CC[C@H](c2c(O)cc(O)c3c(=O)cc(-c4ccccc4Cl)oc23)[C@H](O)C1 [Flavopiridol]
[2] = compound: CO[C@@H](C)Cn1c(=O)n(C)c2cnc3ccc(-c4cncc(C(C)(C)O)c4)cc3c21
Taselisib/GDC0032 = compound: Cc1nc(-c2cn3c(n2)-c2ccc(-c4cnn(C(C)(C)C(N)=O)c4)cc2OCC3)n(C(C)C)n1 [Taselisib/GDC0032]
YKL-5-124 = compound: C=CC(=O)Nc1ccc(C(=O)Nc2[nH]nc3c2CN(C(=O)N[C@H](CN(C)C)c2ccccc2)C3(C)C)cc1 [YKL-5-124]; test: GR value, 72 h; higher = faster growth (1 = untreated, <0 = killing);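 note: breast cancer and non-malignant breast epithelial lines, nine half-log doses, viable cells counted by Hoechst and LIVE/DEAD dye imaging versus time-zero plates and DMSO controls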
BSJ-03-123 = compound: CC(=O)c1c(C)c2cnc(Nc3ccc(N4CCN(CCOCCOCCOCCNC(=O)COc5cccc6c5C(=O)N(C5CCC(=O)NC5=O)C6=O)CC4)cn3)nc2n(C2CCCC2)c1=O [BSJ-03-123]; test: as above
[3] = compound: CC(=O)c1c(C)c2cnc(Nc3ccc(N4CCNCC4)cn3)nc2n(C2CCCC2)c1=O; test: as above
[4] = compound: CCN1CCN(Cc2ccc(Nc3ncc(F)c(-c4cc(F)c5nc(C)n(C(C)C)c5c4)n3)nc2)CC1; test: as above
Neratinib/HKI272 = compound: CCOc1cc2ncc(C#N)c(Nc3ccc(OCc4ccccn4)c(Cl)c3)c2cc1NC(=O)/C=C/CN(C)C [Neratinib/HKI272]; test: as above
[5] = compound: CCc1cnn2c(NCc3ccc[n+]([O-])c3)cc(N3CCCC[C@H]3CCO)nc12; test: as above
LEE011/Ribociclib = compound: CN(C)C(=O)c1cc2cnc(Nc3ccc(N4CCNCC4)cn3)nc2n1C1CCCC1 [LEE011/Ribociclib]; test: as above
THZ531 = compound: CN(C)C/C=C/C(=O)Nc1ccc(C(=O)N2CCC[C@@H](Nc3ncc(Cl)c(-c4c[nH]c5ccccc45)n3)C2)cc1 [THZ531]; test: as above
THZ1 = compound: CN(C)C/C=C/C(=O)Nc1ccc(C(=O)Nc2cccc(Nc3ncc(Cl)c(-c4c[nH]c5ccccc45)n3)c2)cc1 [THZ1]; test: as above
Flavopiridol [6] = compound: T1, Flavopiridol; test: as above
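Throughout, for GR50, 72 h: breast cancer and non-malignant breast epithelial cell lines, Deep Dye Drop or Dye Drop imaging, nine half-log doses, GR normalized to time-zero plates and DMSO-only controls.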

HCC1419
GR50, 72 h (ABT-737): 9.85 µM | GR50, 72 h (Saracatinib/AZD0530): 0.916 µM | GR50, 72 h (Flavopiridol [1]): 0.191 µM | GR50, 72 h [2]: < 0.001 µM | GR50, 72 h (Taselisib/GDC0032): 0.00918 µM | GR value (YKL-5-124; 0.001 µM): 0.259 GR | GR value (YKL-5-124; 0.003162 µM): 0.184 GR | GR value (YKL-5-124; 0.01 µM): 0.0618 GR | GR value (YKL-5-124; 0.03162 µM): 0.124 GR | GR value (YKL-5-124; 0.1 µM): -0.0246 GR | GR value (YKL-5-124; 0.3162 µM): -0.0463 GR | GR value (YKL-5-124; 1 µM): -0.0452 GR | GR value (YKL-5-124; 3.162 µM): -0.184 GR | GR value (YKL-5-124; 10 µM): -0.379 GR | GR value (BSJ-03-123; 0.001 µM): 0.753 GR | GR value (BSJ-03-123; 0.003162 µM): 0.75 GR | GR value (BSJ-03-123; 0.01 µM): 0.669 GR | GR value (BSJ-03-123; 0.03162 µM): 0.644 GR | GR value (BSJ-03-123; 0.1 µM): 0.643 GR | GR value (BSJ-03-123; 0.3162 µM): 0.527 GR | GR value (BSJ-03-123; 1 µM): 0.432 GR | GR value (BSJ-03-123; 3.162 µM): 0.443 GR | GR value (BSJ-03-123; 10 µM): 0.165 GR | GR value ([3]; 0.0003162 µM): 1.18 GR | GR value ([3]; 0.001 µM): 1.09 GR | GR value ([3]; 0.003162 µM): 1.11 GR | GR value ([3]; 0.01 µM): 0.903 GR | GR value ([3]; 0.03162 µM): 0.828 GR | GR value ([3]; 0.1 µM): 0.612 GR | GR value ([3]; 0.3162 µM): 0.535 GR | GR value ([3]; 1 µM): 0.393 GR | GR value ([3]; 3.162 µM): 0.492 GR | GR value ([4]; 0.001 µM): 1.13 GR | GR value ([4]; 0.003162 µM): 0.823 GR | GR value ([4]; 0.01 µM): 0.714 GR | GR value ([4]; 0.03162 µM): 0.548 GR | GR value ([4]; 0.1 µM): 0.548 GR | GR value ([4]; 0.3162 µM): 0.415 GR | GR value ([4]; 1 µM): 0.487 GR | GR value ([4]; 3.162 µM): 0.303 GR | GR value ([4]; 10 µM): 0.2 GR | GR value (Neratinib/HKI272; 0.0003162 µM): 0.769 GR | GR value (Neratinib/HKI272; 0.001 µM): 0.611 GR | GR value (Neratinib/HKI272; 0.003162 µM): 0.148 GR | GR value (Neratinib/HKI272; 0.01 µM): 0.0675 GR | GR value (Neratinib/HKI272; 0.03162 µM): -0.097 GR | GR value (Neratinib/HKI272; 0.1 µM): -0.159 GR | GR value (Neratinib/HKI272; 0.3162 µM): -0.26 GR | GR value (Neratinib/HKI272; 1 µM): -0.404 GR | GR value (Neratinib/HKI272; 3.162 µM): -0.494 GR | GR value ([5]; 0.0001 µM): 1.15 GR | GR value ([5]; 0.0003162 µM): 1.16 GR | GR value ([5]; 0.001 µM): 1.06 GR | GR value ([5]; 0.003162 µM): 1.25 GR | GR value ([5]; 0.01 µM): 1.15 GR | GR value ([5]; 0.03162 µM): 0.199 GR | GR value ([5]; 0.1 µM): -0.384 GR | GR value ([5]; 0.3162 µM): -0.426 GR | GR value ([5]; 1 µM): -0.471 GR | GR value (LEE011/Ribociclib; 0.001 µM): 0.953 GR | GR value (LEE011/Ribociclib; 0.003162 µM): 0.835 GR | GR value (LEE011/Ribociclib; 0.01 µM): 0.774 GR | GR value (LEE011/Ribociclib; 0.03162 µM): 0.889 GR | GR value (LEE011/Ribociclib; 0.1 µM): 0.685 GR | GR value (LEE011/Ribociclib; 0.3162 µM): 0.58 GR | GR value (LEE011/Ribociclib; 1 µM): 0.655 GR | GR value (LEE011/Ribociclib; 3.162 µM): 0.561 GR | GR value (LEE011/Ribociclib; 10 µM): 0.525 GR | GR value (THZ531; 0.0001 µM): 0.969 GR | GR value (THZ531; 0.0003162 µM): 1.03 GR | GR value (THZ531; 0.001 µM): 1.02 GR | GR value (THZ531; 0.003162 µM): 0.993 GR | GR value (THZ531; 0.01 µM): 1.18 GR | GR value (THZ531; 0.03162 µM): 1.08 GR | GR value (THZ531; 0.1 µM): 0.772 GR | GR value (THZ531; 0.3162 µM): 0.0179 GR | GR value (THZ531; 1 µM): -0.31 GR | GR value (THZ1; 0.0001 µM): 0.981 GR | GR value (THZ1; 0.0003162 µM): 0.953 GR | GR value (THZ1; 0.001 µM): 1.04 GR | GR value (THZ1; 0.003162 µM): 1.03 GR | GR value (THZ1; 0.01 µM): 1.01 GR | GR value (THZ1; 0.03162 µM): 0.765 GR | GR value (THZ1; 0.1 µM): 0.228 GR | GR value (THZ1; 0.3162 µM): -0.215 GR | GR value (THZ1; 1 µM): -0.386 GR | GR value (Flavopiridol [6]; 0.0001 µM): 1.06 GR | GR value (Flavopiridol [6]; 0.0003162 µM): 0.994 GR | GR value (Flavopiridol [6]; 0.001 µM): 0.974 GR | GR value (Flavopiridol [6]; 0.003162 µM): 0.95 GR | GR value (Flavopiridol [6]; 0.01 µM): 0.932 GR | GR value (Flavopiridol [6]; 0.03162 µM): 0.894 GR | GR value (Flavopiridol [6]; 0.1 µM): 0.658 GR | GR value (Flavopiridol [6]; 0.3162 µM): 0.396 GR | GR value (Flavopiridol [6]; 1 µM): -0.261 GR
